# Assay results reported in PMC6934184, “Selective DNA-PKcs inhibition extends the therapeutic index of localized radiotherapy and chemotherapy” (The Journal of Clinical Investigation, 2019).
# Target: T1, MAPK9 (JNK2) (Homo sapiens, UniProt P45984)
# T1 construct: purchased Thermo Fisher Scientific (Life Technologies) SelectScreen
# Experiment: SelectScreen Z'LYTE
# Assay type: biochemical
# Settings: ATP 100 µM
# Procedure, shortened: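 SelectScreen broad panel; activity (Z'LYTE, Adapta) plus binding formats. ATP: Km app for CSF1R Z'LYTE; 10 for CAMK1 Adapta. Readout = % per kinase.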
# T1 sequence (P45984 whole entry): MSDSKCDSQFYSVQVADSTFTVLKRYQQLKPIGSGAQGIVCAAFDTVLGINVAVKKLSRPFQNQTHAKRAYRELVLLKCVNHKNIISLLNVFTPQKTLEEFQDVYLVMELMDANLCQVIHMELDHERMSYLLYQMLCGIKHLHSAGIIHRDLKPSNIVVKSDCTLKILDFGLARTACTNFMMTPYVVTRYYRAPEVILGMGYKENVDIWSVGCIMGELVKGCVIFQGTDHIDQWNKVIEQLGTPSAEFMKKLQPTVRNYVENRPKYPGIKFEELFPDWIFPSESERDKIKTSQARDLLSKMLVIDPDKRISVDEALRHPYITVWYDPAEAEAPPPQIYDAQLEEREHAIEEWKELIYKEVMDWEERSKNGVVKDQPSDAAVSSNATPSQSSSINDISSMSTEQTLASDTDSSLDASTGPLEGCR
smiles,measurement,value
CN(C(=O)CN1CCOCC1)c1ccc2sc3c(-c4cccc5c(=O)cc(N6CC7CCC(C6)O7)oc45)cccc3c2c1 [NU5455],inhibition at 1 µM,2.8%
